Results on 16 compounds are retold here after US10004732B2 (Novartis AG, priority 2014, dated 2018).

Data set [1] deals with mTOR (Homo sapiens, UniProt P42345). The data set is described as follows: Lanthascreen kinase binding assay, assay G. The conditions noted are these: read-out: Assay G mTOR IC50.
Method: Lanthascreen™ Kinase Binding Assay for mTOR (G)
Binding of an inhibitor to the kinase competes for binding with the tracer, resulting in a loss of FRET.
50 nL of compound dilutions were dispensed onto white 384-well small volume polystyrene plate.
In data set [2] the target is T1, PI 3-kinase delta (Homo sapiens, UniProt O00329). The experiment in a line: Cellular assay J1, p-Akt (S473) in Rat-1 cells, Surefire format. The format is cell-based. The conditions noted are these: non-asterisked data: version J1 (Surefire format), Rat-1 cells; read-out: Assay J PI3Kδ IC50.
Data set [3] concerns the target T1, PI 3-kinase delta. The data set is described as follows: TR-FRET Adapta assay, assay F. The note with it: read-out: Assay F PI3Kδ IC50.
In data set [4] the target is T2, PI 3-kinase alpha (Homo sapiens, UniProt P42336). The experiment in a line: Kinase Glo Luminescent Kinase Assay (Kglo), assay A. The format is biochemical. The conditions noted are these: read-out: Assay A PI3Kα IC50.
Target sequence in this assay (P42336 whole entry): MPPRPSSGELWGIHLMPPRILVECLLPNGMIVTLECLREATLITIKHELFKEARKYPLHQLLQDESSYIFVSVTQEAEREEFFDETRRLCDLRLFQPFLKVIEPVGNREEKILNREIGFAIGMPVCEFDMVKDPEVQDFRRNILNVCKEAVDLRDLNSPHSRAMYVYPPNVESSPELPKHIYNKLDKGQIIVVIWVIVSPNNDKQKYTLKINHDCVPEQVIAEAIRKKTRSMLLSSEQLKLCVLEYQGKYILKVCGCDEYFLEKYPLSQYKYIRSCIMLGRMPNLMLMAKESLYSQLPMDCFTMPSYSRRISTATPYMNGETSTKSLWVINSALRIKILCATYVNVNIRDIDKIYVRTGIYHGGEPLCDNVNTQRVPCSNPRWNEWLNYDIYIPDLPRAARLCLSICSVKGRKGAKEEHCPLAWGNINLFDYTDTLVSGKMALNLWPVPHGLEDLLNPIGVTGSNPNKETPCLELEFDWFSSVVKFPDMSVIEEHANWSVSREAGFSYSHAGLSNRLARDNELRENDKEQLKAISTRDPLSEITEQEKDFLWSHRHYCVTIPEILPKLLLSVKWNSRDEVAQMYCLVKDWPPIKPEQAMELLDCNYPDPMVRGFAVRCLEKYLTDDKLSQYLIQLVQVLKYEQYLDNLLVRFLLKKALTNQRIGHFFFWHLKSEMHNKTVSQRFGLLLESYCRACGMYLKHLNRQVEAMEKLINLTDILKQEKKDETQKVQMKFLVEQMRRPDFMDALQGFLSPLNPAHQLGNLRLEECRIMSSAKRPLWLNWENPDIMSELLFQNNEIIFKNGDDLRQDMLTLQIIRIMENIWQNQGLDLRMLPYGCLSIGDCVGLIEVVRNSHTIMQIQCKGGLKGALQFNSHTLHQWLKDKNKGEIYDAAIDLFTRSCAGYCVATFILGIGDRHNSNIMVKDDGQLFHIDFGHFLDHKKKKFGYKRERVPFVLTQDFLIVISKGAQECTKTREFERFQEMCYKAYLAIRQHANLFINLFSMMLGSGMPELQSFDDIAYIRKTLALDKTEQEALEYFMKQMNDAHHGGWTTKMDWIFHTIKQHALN
The target of data set [5] is PI 4-kinase beta (Homo sapiens, UniProt Q9UBF8). The data set is described as follows: Kinase Glo Luminescent Kinase Assay (Kglo), assay D. The format is biochemical. The conditions noted are these: read-out: Assay D PI4Kβ IC50.
In data set [6] the target is T3, PI 3-kinase gamma (Homo sapiens, UniProt P48736). The data set is described as follows: TR-FRET Adapta assay, assay E. The data set is classed as biochemical. The conditions noted are these: read-out: Assay E PI3Kγ IC50.
The nature of data set [7]: Microsomal clearance assay (M). The conditions noted are these: intrinsic clearance in rat liver microsomes.
Method: The experiments were performed in 96-well glass plates at 37° C. on an automated Tecan EVO platform. Test compounds at a concentration of 10 mM in pure DMSO were diluted 1:1000 in water to 10 μM. […] Reactions were initiated by the addition of 150 μL of a cofactor solution containing 2 mM NADPH.
For data set [8], the target named is T4, PI 3-kinase beta (Homo sapiens, UniProt P42338). The experiment in a line: Kinase Glo Luminescent Kinase Assay (Kglo), assay B. The format is biochemical. The note with it: read-out: Assay B PI3Kβ IC50.
Target sequence in this assay (P42338 whole entry): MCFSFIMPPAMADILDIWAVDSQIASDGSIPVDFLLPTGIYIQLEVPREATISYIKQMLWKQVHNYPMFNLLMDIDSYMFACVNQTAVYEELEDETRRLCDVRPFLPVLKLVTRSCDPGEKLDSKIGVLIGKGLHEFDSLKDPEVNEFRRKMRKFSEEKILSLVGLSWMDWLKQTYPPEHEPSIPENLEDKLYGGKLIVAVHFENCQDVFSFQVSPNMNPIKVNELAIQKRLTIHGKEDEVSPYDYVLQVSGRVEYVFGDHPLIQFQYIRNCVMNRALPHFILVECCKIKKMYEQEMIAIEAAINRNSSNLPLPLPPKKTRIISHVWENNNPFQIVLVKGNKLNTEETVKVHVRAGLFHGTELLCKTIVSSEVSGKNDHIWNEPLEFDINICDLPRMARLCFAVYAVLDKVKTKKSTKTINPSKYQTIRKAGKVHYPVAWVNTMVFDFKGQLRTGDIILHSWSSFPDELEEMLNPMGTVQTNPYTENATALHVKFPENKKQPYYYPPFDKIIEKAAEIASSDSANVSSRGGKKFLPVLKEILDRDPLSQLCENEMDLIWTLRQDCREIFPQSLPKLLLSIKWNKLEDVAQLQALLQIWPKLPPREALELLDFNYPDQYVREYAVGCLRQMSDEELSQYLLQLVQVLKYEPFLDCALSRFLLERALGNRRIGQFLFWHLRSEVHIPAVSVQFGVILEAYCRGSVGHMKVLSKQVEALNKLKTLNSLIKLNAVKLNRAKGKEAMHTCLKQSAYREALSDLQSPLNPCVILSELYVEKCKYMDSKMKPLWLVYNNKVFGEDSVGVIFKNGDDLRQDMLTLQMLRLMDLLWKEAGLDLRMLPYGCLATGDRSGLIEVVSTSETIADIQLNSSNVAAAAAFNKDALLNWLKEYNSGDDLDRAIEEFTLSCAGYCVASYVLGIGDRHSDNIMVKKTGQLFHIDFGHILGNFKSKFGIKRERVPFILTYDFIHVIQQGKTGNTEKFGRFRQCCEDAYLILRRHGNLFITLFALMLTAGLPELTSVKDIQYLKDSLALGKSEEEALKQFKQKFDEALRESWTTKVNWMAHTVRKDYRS
Target sequence in this assay (P27986 461-568 partner): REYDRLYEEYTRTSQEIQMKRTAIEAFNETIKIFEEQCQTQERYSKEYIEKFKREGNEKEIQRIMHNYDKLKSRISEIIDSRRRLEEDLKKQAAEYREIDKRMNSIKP
Data set [9] concerns the target T2, PI 3-kinase alpha. The experiment in a line: Cellular assay H1, p-Akt (S473) in Rat-1 cells, Surefire format. The note with it: non-asterisked data: version H1 (Surefire format), Rat-1 cells; read-out: Assay H PI3Kα IC50. The format is cell-based.
Target sequence in this assay (P42336 whole entry): as the sequence (P42336 whole entry) above
Target sequence in this assay (Q63787 whole entry partner): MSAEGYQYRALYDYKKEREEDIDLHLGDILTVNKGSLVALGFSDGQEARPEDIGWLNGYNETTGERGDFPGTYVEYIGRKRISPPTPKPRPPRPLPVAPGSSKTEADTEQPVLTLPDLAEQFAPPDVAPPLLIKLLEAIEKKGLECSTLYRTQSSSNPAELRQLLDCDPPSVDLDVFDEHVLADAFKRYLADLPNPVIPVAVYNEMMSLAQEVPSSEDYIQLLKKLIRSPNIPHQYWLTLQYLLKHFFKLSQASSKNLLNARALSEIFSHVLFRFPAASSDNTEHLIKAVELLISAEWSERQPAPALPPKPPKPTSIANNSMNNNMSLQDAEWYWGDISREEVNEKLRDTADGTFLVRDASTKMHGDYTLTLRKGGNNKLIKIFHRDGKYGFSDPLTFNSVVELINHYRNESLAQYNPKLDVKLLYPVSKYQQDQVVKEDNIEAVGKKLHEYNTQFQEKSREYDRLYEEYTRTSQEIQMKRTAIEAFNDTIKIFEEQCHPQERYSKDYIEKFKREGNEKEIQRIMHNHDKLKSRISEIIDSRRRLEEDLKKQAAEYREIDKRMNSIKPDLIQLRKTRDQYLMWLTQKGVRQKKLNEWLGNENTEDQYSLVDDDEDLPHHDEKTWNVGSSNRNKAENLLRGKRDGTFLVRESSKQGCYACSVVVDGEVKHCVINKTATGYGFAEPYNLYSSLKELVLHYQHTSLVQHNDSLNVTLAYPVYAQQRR
From the text: Cellular Assays for PI 3-Kinase Alpha (H1), Beta (I1) and Delta (J1): Surefire Format
AlphaScreen (Amplified Luminescent Proximity Homogeneous Assay, ALPHA, Perkin Elmer) is a non-radioactive bead-based proximity assay technology to study biomolecular interactions in a homogenous microtiter plate format. The brand name SureFire denotes AlphaScreen assays that are adapted to quantify the phosphorylation of endogenous cellular proteins in cell lysates, by using matched antibody pairs, which consist of an anti-phospho-kinase and an anti-kinase antibody. The assay allows characterization of kinase signaling in cells as well as measurement of kinase inhibitor effects.
Using Rat-1 cells stably expressing myr-HA-tagged versions of the human PI3Kdelta, PI3Kalpha, or PI3Kbeta p110 catalytic subunit isoforms, the assay was developed as a two-plate protocol in a 384-well format.
For compound testing, the cells were seeded at a density of 4000 (Rat-1_PI3Kdelta), 7500 (Rat-1_PI3Kalpha), or 6200 (Rat-1_PI3Kbeta) cells in 20 μl complete growth medium into cell culture treated 384-well plates and were grown at 37° C./5% CO2/90% humidity for 24 h. Shortly before compound transfer, the complete medium was removed, 30 μl assay buffer (DMEM high glucose, 1×MEM NEAA, 10 mM HEPES, 2 mM L-glutamine, 0.1% (w/v) BSA) was added and 10 μl of the compound predilutions were transferred to the cells.
In data set [10] the target is Vps34 (Homo sapiens, UniProt Q8NEB9). The experiment in a line: Kinase Glo Luminescent Kinase Assay (Kglo), assay C. The data set is classed as biochemical. The note with it: read-out: Assay C VPS34 IC50.
The target of data set [11] is T4, PI 3-kinase beta. The experiment in a line: Cellular assay I1, p-Akt (S473) in Rat-1 cells, Surefire format. The format is cell-based. The conditions noted are these: non-asterisked data: version I1 (Surefire format), Rat-1 cells; read-out: Assay I PI3Kβ IC50.
Target sequence in this assay (P42338 whole entry): as the sequence (P42338 whole entry) above
Target sequence in this assay (Q63787 whole entry partner): as the sequence (Q63787 whole entry partner) above
Data set [12] concerns the target T3, PI 3-kinase gamma. The data set is described as follows: Cellular U937 AKT assay K1 (MSD). The format is cell-based. The conditions noted are these: U937 cells, K1 format; read-out: Assay K1 PI3Kγ IC50.

Sequence of PI 4-kinase beta (Q9UBF8 whole entry): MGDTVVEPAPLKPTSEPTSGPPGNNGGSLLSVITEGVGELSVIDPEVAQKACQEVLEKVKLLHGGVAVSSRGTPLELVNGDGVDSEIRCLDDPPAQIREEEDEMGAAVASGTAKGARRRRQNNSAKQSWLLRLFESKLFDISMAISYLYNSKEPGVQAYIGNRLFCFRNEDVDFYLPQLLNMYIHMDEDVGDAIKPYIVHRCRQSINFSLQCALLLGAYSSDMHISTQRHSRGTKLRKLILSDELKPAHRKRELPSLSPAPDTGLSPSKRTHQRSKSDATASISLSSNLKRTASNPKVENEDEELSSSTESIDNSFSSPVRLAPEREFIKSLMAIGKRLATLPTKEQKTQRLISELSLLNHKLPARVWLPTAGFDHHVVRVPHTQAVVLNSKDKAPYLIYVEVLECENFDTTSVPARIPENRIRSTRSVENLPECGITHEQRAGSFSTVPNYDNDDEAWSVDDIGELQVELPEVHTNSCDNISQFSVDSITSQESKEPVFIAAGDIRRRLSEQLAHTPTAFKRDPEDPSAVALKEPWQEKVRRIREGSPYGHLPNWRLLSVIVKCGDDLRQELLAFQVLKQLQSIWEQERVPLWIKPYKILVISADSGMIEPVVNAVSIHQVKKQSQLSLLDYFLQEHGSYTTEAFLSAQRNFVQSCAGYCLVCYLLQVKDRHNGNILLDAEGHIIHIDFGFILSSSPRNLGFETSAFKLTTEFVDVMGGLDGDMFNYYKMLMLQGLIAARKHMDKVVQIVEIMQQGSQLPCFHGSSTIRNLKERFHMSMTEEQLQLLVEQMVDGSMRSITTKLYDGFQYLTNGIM
Sequence of Vps34 (Q8NEB9 whole entry, species assumed): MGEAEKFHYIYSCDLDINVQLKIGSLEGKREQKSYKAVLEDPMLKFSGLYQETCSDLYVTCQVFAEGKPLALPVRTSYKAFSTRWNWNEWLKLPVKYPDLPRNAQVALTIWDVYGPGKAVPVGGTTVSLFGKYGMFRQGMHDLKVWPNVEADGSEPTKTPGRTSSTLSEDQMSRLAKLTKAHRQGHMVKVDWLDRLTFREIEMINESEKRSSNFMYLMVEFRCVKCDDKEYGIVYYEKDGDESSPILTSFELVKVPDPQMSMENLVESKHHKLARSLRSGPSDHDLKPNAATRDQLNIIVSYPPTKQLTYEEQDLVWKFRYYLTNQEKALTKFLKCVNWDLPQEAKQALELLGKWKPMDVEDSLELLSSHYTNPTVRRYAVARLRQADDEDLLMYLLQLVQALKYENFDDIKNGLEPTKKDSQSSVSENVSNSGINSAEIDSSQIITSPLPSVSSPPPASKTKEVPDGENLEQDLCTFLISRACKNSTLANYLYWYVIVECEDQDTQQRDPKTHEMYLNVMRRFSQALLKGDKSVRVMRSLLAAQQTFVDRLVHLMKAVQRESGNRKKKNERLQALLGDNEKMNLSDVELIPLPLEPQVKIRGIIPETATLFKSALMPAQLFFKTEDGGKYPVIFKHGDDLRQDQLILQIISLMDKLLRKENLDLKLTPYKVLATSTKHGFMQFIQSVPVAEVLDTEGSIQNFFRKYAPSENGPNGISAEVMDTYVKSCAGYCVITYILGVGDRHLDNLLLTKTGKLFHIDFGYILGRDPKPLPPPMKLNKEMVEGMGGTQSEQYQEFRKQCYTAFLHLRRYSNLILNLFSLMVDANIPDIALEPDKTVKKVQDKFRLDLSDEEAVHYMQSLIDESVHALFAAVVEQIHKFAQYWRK

Take `CCn1cc(-c2nc(-c3cc(S(=O)(=O)NCC(C)(C)O)ccc3C)cnc2N)nn1` [Example 83, 3-(5-Amino-6-(1-ethyl-1H-1,2,3-triazol-4-yl)pyrazin-2-yl)-N-(2-hydroxy-2-methylpropyl)-4-methylbenzenesulfonamide]: the IC50 in [1] was above 10000 nM; in [2], 4050 nM; in data set [3], 700 nM; in data set [4], 1900 nM; in [5], 4300 nM; in [6], 85 nM. Moreover, the half-inhibitory concentration (IC50) is 5200 nM in data set [8], above 10000 nM in data set [9], above 10000 nM in data set [10] and 8750 nM in data set [11]. The “Assay M RLM CI(int)” value in data set [7] came to 45 µL/min/mg.

Regarding `Cc1ccc(S(=O)(=O)NCCC(C)(C)O)cc1-c1cnc(N)c(-c2cnc(C3CC3)s2)n1` [Example 107, 3-(5-Amino-6-(2-cyclopropylthiazol-5-yl)pyrazin-2-yl)-N-(3-hydroxy-3-methylbutyl)-4-methylbenzenesulfonamide], the IC50 was determined as 1390 nM in data set [1]; 960 nM in data set [2]; 60 nM in [3]; 80 nM in data set [4]; 940 nM in data set [5]; 6 nM in [6]. The 50% inhibitory concentration (IC50) in [8] was 2090 nM; in [9] it was 790 nM; in data set [10], 3100 nM; in [11], 1290 nM. Moreover, in [7], the “Assay M RLM CI(int)” value came to 119 µL/min/mg.

Consider `COc1nc(-c2nc(-c3cc(S(=O)(=O)NCCC(C)(C)O)ccc3C)cnc2N)cs1` [Example 110, 3-(5-Amino-6-(2-methoxythiazol-4-yl)pyrazin-2-yl)-N-(3-hydroxy-3-methylbutyl)-4-methylbenzenesulfonamide], for which the half-maximal inhibitory concentration (IC50) in data set [1] is above 10000 nM; in [2], 690 nM; in data set [3], 320 nM; in data set [4] it was 90 nM; in data set [5] it was above 10000 nM; in data set [6], 10 nM. Besides, the IC50 in data set [8] was 520 nM; in [9] it was 480 nM; in data set [10], above 10000 nM; in data set [11] it was 1730 nM. Moreover, in data set [7], the “Assay M RLM CI(int)” value amounted to 254 µL/min/mg.

In the case of `Cc1ccc(S(=O)(=O)NCCC(C)(C)O)cc1-c1cnc(N)c(-c2cnn(CCC(C)C)c2)n1` [Example 119.26], the IC50 was determined as 5870 nM in data set [1]; 510 nM in data set [2]; 40 nM in data set [3]; 250 nM in data set [4]; 1790 nM in [5]; 37 nM in data set [6]. In addition, the IC50 in [8] was 3900 nM; in data set [9], 700 nM; in data set [10] it was above 9100 nM; in data set [11] it was 1800 nM. In [7], the “Assay M RLM CI(int)” value came to 380 µL/min/mg.

On to `Cc1ccc(S(=O)(=O)NCCC(C)(C)O)cc1-c1cnc(N)c(-c2cnn(CC(C)C)c2)n1` [Example 119.32], for which the IC50 in data set [1] was 6040 nM; in [2], 790 nM; in data set [3] it was 200 nM; in [4] it was 260 nM; in data set [5], 2670 nM; in data set [6] it was 11 nM. The IC50 in data set [8] was 3220 nM; in data set [9], 1680 nM; in data set [10], above 9100 nM; in data set [11] it was 6040 nM. In data set [7], the “Assay M RLM CI(int)” value came out at 191 µL/min/mg.

Turning to `Cc1ccc(S(=O)(=O)N2CCC(F)(F)C2)cc1-c1cnc(N)c(-n2cncn2)n1` [Example 127.3], the IC50 in data set [1] was above 10000 nM; in data set [3], above 10000 nM; in data set [4], 380 nM; in data set [5], 3400 nM; in data set [12], 371 nM; in [6], 160 nM. Moreover, the IC50 in data set [8] was 3200 nM; in data set [10], above 10000 nM.

On to `Cc1ccc(S(=O)(=O)NC[C@@H](C)O)cc1-c1cnc(N)c(-n2cncn2)n1` [Example 127.13], for which the IC50 in [1] amounted to 6100 nM; in data set [3], 1100 nM; in data set [4], 280 nM; in data set [5], 3800 nM; in data set [12], 210 nM; in [6], 26 nM. Also, the IC50 in data set [8] is 530 nM; in [10] it was above 10000 nM.

`Cc1ccc(S(=O)(=O)NCC2CCCCO2)cc1-c1cnc(N)c(-n2cncn2)n1` (stereo not shown) [Example 127.17]: the IC50 was above 10000 nM in data set [1]; 1100 nM in data set [3]; 890 nM in data set [4]; 7400 nM in data set [5]; 392 nM in [12]; 38 nM in [6]. Moreover, the IC50 in data set [8] was 1200 nM; in data set [10], above 10000 nM.

As for `Cc1ccc(S(=O)(=O)N[C@H]2CCOC2)cc1-c1cnc(N)c(-n2cncn2)n1` [Example 127.21], the IC50 in data set [1] is 3000 nM; in [3], 1200 nM; in [4], 360 nM; in data set [5], above 10000 nM; in data set [12] it was 320 nM; in data set [6] it was 98 nM. Moreover, the values for the half-maximal inhibitory concentration (IC50) in [8] and in [10] were 1900 nM and above 10000 nM, respectively.

With `Cc1ccc(S(=O)(=O)NC[C@@](C)(O)C(F)(F)F)cc1-c1cnc(N)c(-n2cncn2)n1` [Example 127.22], the half-maximal inhibitory concentration (IC50) stood at 3900 nM in [1]; 500 nM in data set [3]; 270 nM in data set [4]; 8300 nM in data set [5]; 156 nM in [12]; 40 nM in data set [6]. The IC50 is 970 nM in data set [8] and above 10000 nM in data set [10].

In the case of `Cc1ccc(S(=O)(=O)NC[C@](C)(O)C(F)(F)F)cc1-c1cnc(N)c(-n2cncn2)n1` [Example 127.23], the half-maximal inhibitory concentration (IC50) came to 360 nM in data set [3]; 180 nM in data set [4]; 2900 nM in data set [5]; 82 nM in data set [12]; 23 nM in [6]; 580 nM in data set [8]. The IC50 in data set [10] was above 10000 nM.

As to `Cc1ccc(S(=O)(=O)NCCC(C)(O)C(F)(F)F)cc1-c1cnc(N)c(-n2cncn2)n1` (stereo not shown) [Example 127.24], the IC50 in data set [1] was found to be 4700 nM; in data set [3], 320 nM; in [4], 200 nM; in [5] it was 1800 nM; in [12], 168 nM; in [6] it was 27 nM. The 50% inhibitory concentration (IC50) in data set [8] is 790 nM; in data set [10], above 10000 nM.

As for `Cc1ccc(S(=O)(=O)NCCF)cc1-c1cnc(N)c(-n2cncn2)n1` [Example 127.28], the half-inhibitory concentration (IC50) is above 10000 nM in [1]; 3500 nM in data set [3]; 450 nM in data set [4]; 8400 nM in data set [5]; 290 nM in [12]; 160 nM in data set [6]. Besides, the half-maximal inhibitory concentration (IC50) in [8] is 5100 nM; in data set [10], above 10000 nM.

Consider `Cc1cc(-c2nc(-c3cc(S(=O)(=O)NCCCCCO)ccc3C)cnc2N)ccn1` [Example 129.3, 3-(5-amino-6-(2-methylpyridin-4-yl)pyrazin-2-yl)-N-(5-hydroxypentyl)-4-methylbenzenesulfonamide], for which the IC50 in data set [1] is above 9100 nM; in data set [2] it was 6840 nM; in data set [3], 340 nM; in [4], 490 nM; in [5] it was above 9100 nM; in [6], 16 nM. In addition, the IC50 in data set [8] is 7100 nM; in [9] it was 7600 nM; in data set [10], above 9100 nM; in [11], above 10000 nM. Also, the “Assay M RLM CI(int)” value in data set [7] amounted to 139 µL/min/mg.

As for `Cc1cc(-c2nc(-c3cc(S(=O)(=O)NCC4CCCOC4)ccc3C)cnc2N)ccn1` (stereo not shown) [Example 129.14, 3-(5-amino-6-(2-methylpyridin-4-yl)pyrazin-2-yl)-4-methyl-N-((tetrahydro-2H-pyran-3-yl)methyl)benzenesulfonamide], the IC50 is 5700 nM in data set [1]; 2960 nM in data set [2]; 480 nM in [3]; 210 nM in data set [4]; above 9100 nM in data set [5]; 59 nM in [6]. Further, the half-inhibitory concentration (IC50) was 4500 nM in data set [8], 2960 nM in data set [9], above 9100 nM in data set [10] and 5150 nM in [11]. For the same compound, the “Assay M RLM CI(int)” value in data set [7] is 347 µL/min/mg.

As for `CCc1noc(-c2nc(-c3cc(S(=O)(=O)NC4CNC4)ccc3C)cnc2N)n1` [Example 137, 3-(5-Amino-6-(3-ethyl-1,2,4-oxadiazol-5-yl)pyrazin-2-yl)-N-(azetidin-3-yl)-4-methylbenzenesulfonamide], the half-inhibitory concentration (IC50) in data set [1] was 950 nM; in data set [2], 8580 nM; in [3], 330 nM; in data set [4], 1740 nM; in data set [5], above 9100 nM; in [6], 58 nM. In addition, the IC50 in [8] was above 9100 nM; in data set [9] it was above 10000 nM; in data set [10] it was above 9100 nM; in data set [11], above 10000 nM. Further, in data set [7], the “Assay M RLM CI(int)” value is 28 µL/min/mg.
